These results are taken from patent US11161831B2, “Methods and compositions for treatment of muscle wasting, muscle weakness, and/or cachexia” (Baylor College of Medicine, priority 2013, dated 2021).

The subject of the data set is mice with CKD. Kind of data set: CKD-induced muscle wasting in mice (subtotal nephrectomy). Format: in vivo. As to the method:
FIGS. 21A-21G provides a small molecule inhibitor of Stat3 activation, C188-9, that blocks CKD-induced muscle wasting. FIG. 21A. Sham or CKD mice were treated with C188-9 or D5W (diluent) for 14 days. Representative western blots of p-Stat3, Stat3 and GAPDH from lysates of gastrocnemius muscles are shown (n=8 mice/group). FIG. 21B. Differences in body weights of pair-fed, sham or CKD mice treated with C188-9 or D5W at baseline and after 7 or 14 days of treatment (*p<0.05 vs. D5W sham). FIGS. 21C & 21D. Average weights of mixed fiber gastrocnemius and tibialis anterior (TA) muscles from both legs (n=7 mice/group). FIG. 21E. Cryosections of TA muscles were immunostained with anti-laminin to identify the muscle basement membrane. The myofiber areas were measured and the myofiber size distribution was calculated from the areas of ˜500 myofibers assessed by an observer blinded to treatment group (n=4 pairs of mice). FIG. 21F. Muscle force of each mouse studied in FIG. 3C was measured on four consecutive days (Experimental Procedures; n=7 mice/group). G&H. At 2 weeks of C188-9 or D5W treatment, protein synthesis (FIG. 21G) and degradation (FIG. 21H) were measured (n=8 pairs of mice; *p<0.05 vs. D5W). Values are means±SEM.
FIG. 23A. Representative western blots of the indicated proteins from lysates of gastrocnemius muscles of control (Stat3flox/flox) or Stat3 KO sham or CKD mice. FIGS. 23B & 23C. mRNAs of myostatin (FIG. 23B) and C/EBPδ in muscles of sham or CKD mice analyzed by RT-PCR (n=4 mice/group; *p<0.05 vs. Stat3flox/flox sham). FIG. 23D. Representative western blots of the indicated proteins in lysates of gastrocnemius muscles of STZ vs. WT control mice (n=5 pairs). FIG. 23E. Sham or CKD mice were treated with C188-9 or D5W (diluent) for 14 days. Representative western blots of indicated proteins from lysates of gastrocnemius muscles are shown (n=8 mice/group). FIGS. 23F & 23G. mRNA levels of myostatin (FIG. 23F) and C/EBPδ (FIG. 23G) analyzed by RT-PCR and corrected for GAPDH (n=3 mice/group: wild-type mice without CKD; sham mice treated with C188-9 or D5W; mice with CKD treated with C188-9 or D5W; *p<0.05 vs. WT non-CKD). Values are means±SEM. FIG. 6. C/EBPδ and myostatin mediate CKD or Stat3-induced muscle wasting. A. Body weights of wild type or homo- or hetero-C/EBPδ KO mice following creation of CKD. Values are expressed as a percentage of basal body weight (mean±SEM; n=9 for WT mice; n=11 for C/EBPδ−/−; n=11 for C/EBPδ+/− mice; *p<0.05 vs. WT CKD). FIG. 23B. Survival was calculated as the percentage of mice surviving at 3 weeks after CKD or after sham surgery (n=20 for WT; n=25 for C/EBPδ−/−; n=21 for C/EBPδ+/−; *p<0.05 vs. C/EBPδ−/− CKD). FIG. 23C. Average weights from both legs of red fiber (soleus) or white fiber (EDL) muscles (mean±SEM; n=10 mice/group; *p<0.05 vs. WT CKD). FIG. 23D. Representative western blots of p-Stat3 and myostatin from muscles of CKD or sham-operated mice of the following groups: C/EBPδ−/−, C/EBPδ+/− or control (WT). FIG. 23E. Cryosections of gastrocnemius muscles from mice that were transfected with lentivirus expressing Stat3C-GPF or GFP and treated with anti-myostatin inhibitor or PBS. The sections were immunostained with p-Smad2/3 (red, lower panel). […] FIG. 23F. GFP-positive areas in myofibers were measured and the mean myofiber sizes of each group are shown (left panel). The percentage of p-Smad2/3 positive nuclei to total nuclei was calculated (right panel; mean±SEM, *p<0.05 vs. GFP/PBS).
All animal experiments and procedures were approved by the Baylor College of Medicine Institutional Animal Care and Use Committee (IACUC). Subtotal nephrectomy was used to create CKD in mice (Zhang et al., 2011; May et al., 1987). To induce diabetes, 12-week-old Stat3^flox/flox and Stat3 KO mice were injected intraperitoneally with 2 doses of 150 mg/kg/d STZ (Sigma-Aldrich) in 0.1 M citrate buffer (pH 4). Control mice were injected with the citrate buffer. […]

[1] abbreviates: CKD mice, 6.25 mg/kg subcutaneously daily for 14 days vs. D5W.
Where [2] appears, read: CKD mice, at 2 weeks, EDL muscles.

With `COc1ccc(S(=O)(=O)Nc2cc(-c3c(O)ccc4ccccc34)c(O)c3ccccc23)cc1` [C188-9], under setting [1], the body weights result was “significantly greater” and the “level of p-Stat3 in muscle” value was “decreased”. Where the note is “CKD mice, 14 days”, the “Akt phosphorylation in muscle” value was “higher” and the “CKD-induced phosphorylation of p-Smad2/3” value is listed as “blocked”. The grip strength result (CKD mice, 14 days vs. D5W) was “improved grip strength”. Besides, the “C/EBPδ and myostatin proteins in muscle” value (CKD mice, 14 days, gastrocnemius lysates) is on record as “decreased”. Besides, the “CKD-stimulated mRNA expressions of C/EBPδ and myostatin” value (CKD mice, RT-PCR) was “suppressed”. Further, the “weights of gastrocnemius and tibialis anterior muscles” value (CKD mice, after 14 days vs. D5W) was “greater”. Further, under setting [2], the muscle protein degradation result is on record as “decreased protein degradation” and the muscle protein synthesis entry is given as “improved muscle protein synthesis”. Moreover, the “C/EBPδ or myostatin mRNAs or proteins in muscle” value (control mice without CKD) is reported as “did not change”. For the setting “control, wild type mice without CKD”, the “food intake, body weight, muscle mass or grip strength” value is reported as “did not significantly affect”.
